According to ChEMBL document CHEMBL1201862, “PubChem BioAssay data set” (2004):
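In this assay, cells in 96-well plates receive the compound at five concentrations for 48 hours. Endpoints are linearly interpolated between the surrounding concentrations. At the GI50, growth is halved.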 Active and inactive are the calls of the source. Cut-off read from the data, not from the text of the source: active = GI50 up to about 1.1 µM and inactive = higher.

What was measured:
Test in all cases: NCI tumour cell line growth inhibition, 48 h
786-0 = system: 786-0
A498 = system: A498
A549 = system: A549
ACHN = system: ACHN
CAKI-1 = system: CAKI-1
CCRF-CEM = system: CCRF-CEM
COLO 205 = system: COLO 205
DLD-1 = system: DLD-1
DMS-114 = system: DMS-114
DMS-273 = system: DMS-273
EKVX = system: EKVX
HCC 2998 = system: HCC 2998
HCT-116 = system: HCT-116
HCT-15 = system: HCT-15
HL-60 = system: HL-60
HOP-18 = system: HOP-18
HOP-62 = system: HOP-62
HOP-92 = system: HOP-92
HT-29 = system: HT-29
IGROV-1 = system: IGROV-1
K562 = system: K562
KM-20L2 = system: KM-20L2
KM12 = system: KM12
LOX IMVI = system: LOX IMVI
LXFL 529 = system: LXFL 529
M14 = system: M14
M19-MEL = system: M19-MEL
MOLT-4 = system: MOLT-4
Malme-3M = system: Malme-3M
NCI-H23 = system: NCI-H23
NCI-H460 = system: NCI-H460
NCI-H522 = system: NCI-H522
OVCAR-3 = system: OVCAR-3
OVCAR-4 = system: OVCAR-4
OVCAR-5 = system: OVCAR-5
OVCAR-8 = system: OVCAR-8
RPMI-8226 = system: RPMI-8226
RXF 393 = system: RXF 393
SF-268 = system: SF-268
SF-295 = system: SF-295
SF-539 = system: SF-539
SK-MEL-28 = system: SK-MEL-28
SK-MEL-2 = system: SK-MEL-2
SK-MEL-5 = system: SK-MEL-5
SK-OV-3 = system: SK-OV-3
SN12C = system: SN12C
SNB-19 = system: SNB-19
SNB-75 = system: SNB-75
SNB-78 = system: SNB-78
SR = system: SR
SW-620 = system: SW-620
TK-10 = system: TK-10
U-251 = system: U-251
UACC-257 = system: UACC-257
UACC-62 = system: UACC-62
UO-31 = system: UO-31
NCI-H226 = system: NCI-H226

Compound: CC1CCC2(OC1)OC1CC3C4CCC5CC(O)CCC5(C)C4CC(=O)OC3(C)C1C2C (stereo not drawn)
- GI50 (786-0): > 100 µM (inactive)
- GI50 (A498): > 100 µM (inactive)
- GI50 (A549): > 100 µM (inactive)
- GI50 (ACHN): > 100 µM (inactive)
- GI50 (CAKI-1): > 100 µM (inactive)
- GI50 (CCRF-CEM): > 100 µM (inactive)
- GI50 (COLO 205): > 100 µM (inactive)
- GI50 (DLD-1): > 100 µM (inactive)
- GI50 (DMS-114): > 100 µM (inactive)
- GI50 (DMS-273): > 100 µM (inactive)
- GI50 (EKVX): > 100 µM (inactive)
- GI50 (HCC 2998): > 100 µM (inactive)
- GI50 (HCT-116): > 100 µM (inactive)
- GI50 (HCT-15): > 100 µM
- GI50 (HL-60): > 100 µM (inactive)
- GI50 (HOP-18): > 100 µM (inactive)
- GI50 (HOP-62): > 100 µM (inactive)
- GI50 (HOP-92): > 100 µM (inactive)
- GI50 (HT-29): > 100 µM (inactive)
- GI50 (IGROV-1): > 100 µM (inactive)
- GI50 (K562): > 100 µM (inactive)
- GI50 (KM-20L2): > 100 µM (inactive)
- GI50 (KM12): > 100 µM (inactive)
- GI50 (LOX IMVI): > 100 µM (inactive)
- GI50 (LXFL 529): > 100 µM (inactive)
- GI50 (M14): > 100 µM (inactive)
- GI50 (M19-MEL): > 100 µM (inactive)
- GI50 (MOLT-4): > 100 µM (inactive)
- GI50 (Malme-3M): > 100 µM (inactive)
- GI50 (NCI-H23): > 100 µM (inactive)
- GI50 (NCI-H460): > 100 µM (inactive)
- GI50 (NCI-H522): > 100 µM (inactive)
- GI50 (OVCAR-3): > 100 µM (inactive)
- GI50 (OVCAR-4): > 100 µM (inactive)
- GI50 (OVCAR-5): > 100 µM (inactive)
- GI50 (OVCAR-8): > 100 µM (inactive)
- GI50 (RPMI-8226): > 100 µM (inactive)
- GI50 (RXF 393): > 100 µM (inactive)
- GI50 (SF-268): > 100 µM (inactive)
- GI50 (SF-295): > 100 µM (inactive)
- GI50 (SF-539): > 100 µM (inactive)
- GI50 (SK-MEL-28): > 100 µM (inactive)
- GI50 (SK-MEL-2): > 100 µM (inactive)
- GI50 (SK-MEL-5): > 100 µM (inactive)
- GI50 (SK-OV-3): > 100 µM (inactive)
- GI50 (SN12C): > 100 µM (inactive)
- GI50 (SNB-19): > 100 µM (inactive)
- GI50 (SNB-75): > 100 µM (inactive)
- GI50 (SNB-78): > 100 µM (inactive)
- GI50 (SR): > 100 µM (inactive)
- GI50 (SW-620): > 100 µM (inactive)
- GI50 (TK-10): > 100 µM (inactive)
- GI50 (U-251): > 100 µM (inactive)
- GI50 (UACC-257): > 100 µM (inactive)
- GI50 (UACC-62): > 100 µM (inactive)
- GI50 (UO-31): > 100 µM (inactive)

Compound: O=Cc1cc2c(cc1-c1cc3c(cc1C=O)OCO3)OCO2
- GI50 (786-0): > 100 µM (inactive)
- GI50 (A498): > 100 µM (inactive)
- GI50 (A549): 50.4 µM (inactive)
- GI50 (ACHN): 71.8 µM (inactive)
- GI50 (CAKI-1): 66.2 µM (inactive)
- GI50 (CCRF-CEM): 23.4 µM (inactive)
- GI50 (COLO 205): 39.5 µM (inactive)
- GI50 (DLD-1): 50.4 µM (inactive)
- GI50 (DMS-114): > 100 µM (inactive)
- GI50 (DMS-273): 64.3 µM (inactive)
- GI50 (EKVX): > 100 µM (inactive)
- GI50 (HCC 2998): > 100 µM (inactive)
- GI50 (HCT-116): 58.7 µM (inactive)
- GI50 (HCT-15): 70.3 µM
- GI50 (HL-60): 34.1 µM (inactive)
- GI50 (HOP-18): > 100 µM (inactive)
- GI50 (HOP-62): > 100 µM (inactive)
- GI50 (HOP-92): > 100 µM (inactive)
- GI50 (HT-29): 90.2 µM (inactive)
- GI50 (IGROV-1): > 100 µM (inactive)
- GI50 (K562): 30.8 µM (inactive)
- GI50 (KM-20L2): > 100 µM (inactive)
- GI50 (KM12): 83 µM (inactive)
- GI50 (LOX IMVI): 23.3 µM (inactive)
- GI50 (LXFL 529): > 100 µM (inactive)
- GI50 (M14): > 100 µM (inactive)
- GI50 (M19-MEL): 56.8 µM (inactive)
- GI50 (MOLT-4): 45.5 µM (inactive)
- GI50 (Malme-3M): > 100 µM (inactive)
- GI50 (NCI-H226): > 100 µM (inactive)
- GI50 (NCI-H23): 72.4 µM (inactive)
- GI50 (NCI-H460): > 100 µM (inactive)
- GI50 (NCI-H522): 64.1 µM (inactive)
- GI50 (OVCAR-3): 55.6 µM (inactive)
- GI50 (OVCAR-4): > 100 µM (inactive)
- GI50 (OVCAR-5): > 100 µM (inactive)
- GI50 (OVCAR-8): > 100 µM (inactive)
- GI50 (RPMI-8226): 30.3 µM (inactive)
- GI50 (RXF 393): 37.3 µM (inactive)
- GI50 (SF-268): > 100 µM (inactive)
- GI50 (SF-295): > 100 µM (inactive)
- GI50 (SF-539): > 100 µM (inactive)
- GI50 (SK-MEL-28): 95.1 µM (inactive)
- GI50 (SK-MEL-2): > 100 µM (inactive)
- GI50 (SK-MEL-5): > 100 µM (inactive)
- GI50 (SK-OV-3): > 100 µM (inactive)
- GI50 (SN12C): > 100 µM (inactive)
- GI50 (SNB-19): 87.9 µM (inactive)
- GI50 (SNB-75): > 100 µM (inactive)
- GI50 (SNB-78): > 100 µM (inactive)
- GI50 (SR): 21 µM (inactive)
- GI50 (SW-620): 55.8 µM (inactive)
- GI50 (TK-10): > 100 µM (inactive)
- GI50 (U-251): > 100 µM (inactive)
- GI50 (UACC-257): > 100 µM (inactive)
- GI50 (UACC-62): > 100 µM (inactive)
- GI50 (UO-31): 71.6 µM (inactive)
